Tests used:
[1] = tested on: hyperuricemia mouse model; test: Hyperuricemia mouse model (high-purine diet + potassium oxonate), serum uric acid; assay type: in vivo, mice; conditions: FIG. 9; normal range 40-65
Description: 6-10 weeks old mice are randomly divided into groups of 10 mice as follows, using 1.0×10^8-1010 CFU for the test product: • 1) Control group • 2) Allopurinol treatment group • 3) Microbial treatment group 1: Test product is bacterial strain BEO #104 • 4) Microbial treatment group 2: Test product is bacterial strain BEO #110 • 5) Microbial treatment group 4: Test product is bacterial strain BEO #227 • 6) Microbial treatment group 6: Test product is mix of bacterial strains BEO #110+BEO #227
The control group is fed a normal diet (laboratory chow and water ad libitum) and treated with saline (0.5 ml, sodium chloride solution in water) by intragastric administration once a day. The other groups are fed a high-purine diet (laboratory high-purine chow and water ad libitum) and administered an intraperitoneal injection of potassium oxonate 300 mg/kg once a day. The microbial treatment groups are treated daily with approximately 1.0×10^9 CFU/day by intragastric administration. The strains tested all have QPS status and they are produced and formulated under laboratory conditions.
Mice are weighed day −1 for determination of mean weight of animals in the experiment and for composition of groups. […]
Serum is collected once weekly and at the end of experiment. […] Serum is analysed for uric acid concentration.

[2] = tested on: patients; conditions: patients treated with allopurinol; cited from earlier work
[3] = tested on: uricase; test: Bacterial uricase activity (Amplex Red Uric Acid/Uricase Assay Kit); assay type: biochemical; conditions: mean average of all strains of the species; 2% uric acid in medium; fluorescence after 30 min; positive control 20 mM H2O2
Procedure: Bacterial strains were evaluated for uricase catalytic activity. Prior to the assay, 1/100th volume from the glycerol stocks (example 1) was added to the microtiter plate containing appropriate medium (see overview). Culturing conditions (time, temperature, medium, aerobic or anaerobic) depend on species and can be found in Table 1. Uric acid was dissolved in medium to 2% and the medium was filter sterilized (therefore uric acid was immediately present in the medium upon culturing). Growth of the bacterial strains was assessed by visual examination (the level of viscosity of the medium) before harvesting for fluorescence measurement. […]
The enzyme assay, Amplex® Red Uric Acid/Uricase Assay Kit; Catalog No. A22181; Molecular Probes, was used according to the instructions of the manufacturer. Fluorescence readouts were determined after 30 min using excitation at 530±12.5 nm and fluorescence detection at 590±17.5 nm. […]
The activity of the strains listed in Table 1 was determined, as described in Examples 2 and 3, as percentage of maximal fluorescence from positive controls (Bifidobacterium breve strain ATCC 15701 was used as positive control for the screems according to Example 2 and 20 mM H2O2 solution was used as positive control for the screems according to Example 3). […]

Compound | serum urate concentration over a 23-hour treatment cycle [1] | patients treated reaching the treatment target [2] | Uricase activity: Inhibitory activity [3]
Oc1ncnc2[nH]ncc12 [allopurinol] | large fluctuations in serum urate outside the normal range | 30-40% | 
Lactobacillus plantarum |  |  | low (low (5-30% of positive control))
